The source of these data is patent US20120283274A1, “CRYSTALLINE FORMS OF SUBSTITUTED PYRAZOLOPYRIMIDINES” (priority 2009, published 2012).

The solubility is how much of the substance goes into solution per volume.

Common to all, as to assay type: physicochemical
Series [1] can be described thus: DVS (dynamic vapour sorption), hygroscopicity. As to conditions: for hygroscopicity: DVS 50%->0%->95%->50% r.h.; for post-DVS Raman spectrum, change in form: after DVS cycle; for mass change Δm: change of relative humidity (r.h.) from 50 to 85%. On the procedure: DVS (50%->0%->95%->50% r.h.) was performed on the samples as mentioned above. The results are summarized in the following:
Surface Measurement Systems Ltd. DVS-1 water vapour sorption analyzer and Projekt Messtechnik SPS 11-100n multi-sample water vapor sorption analyzer were used.
The sample was allowed to equilibrate at 50% relative humidity (r.h.) before starting e.g. the following predefined humidity program: • 2 h at 0% r.h. • 0 to 95% r.h. (5%/h) • 3 h at 95% r.h. • 95 to 0% (10%/h) • 2 h at 0% r.h.

Series [2] can be described thus: Determination of dissolution rate of a compressed tablet (UV-absorption spectroscopy). Further details: key to Dissolution rate: —: In case that no data given in the Table 3 it was found, that the dissolution rate did not change significantly in moving from the second to the third and fourth sectors. The settings on record: for Dissolution rate: 0.15 M aqueous potassium chloride, 23° C., compressed tablet. From the text:
Only one face of the tablet was exposed to the dissolution medium, which contained an acetate/phosphate buffer system to minimise perturbation of the experimental pH from dissolution of the drug. Stirring of the solution was continuous and at a constant rate. The absorption data was converted to absolute sample weights using previously determined, pH-dependent, molar extinction coefficients. An appropriate wavelength range was chosen to ensure that spectroscopic data with an absorption value of <1.3 was analyzed, avoiding erroneous dissolution results due to saturation of the […]. Dissolution rates were calculated from the fit of a first-order exponential equation to the experimental data obtained.
The dissolution rates listed in the Table 3 were determined at pH 2.0, 3.9, 5.4, and 7.3 (+/−0.1), at a temperature of 23° C. (+/−1° C.).

Series [3] in a line: Determination of aqueous solubility (HPLC). On the procedure:
The samples were shaken with a temperature controlled “Thermomixer comfort” from Eppendorf at 800 rpm (24 hours, 23° C.). The resulting suspensions were filtered with Millipore Centrifugal Filter Device UFC30VVNB (0.1) and Centrifuge Hettich EBA 12 R (10.000 g).
The pH of the filtrate was measured, and the concentration of the free base was determined by HPLC (method is described in Example 7).
Suspension of co-crystal in water was agitated with a temperature controlled. Thermomixer comfort” from Eppendorf with 800 rpm (24 hours, 23° C.). The suspension was filtered with Millipore Centrifugal Filter Device UFC30VVNB (0.1μ) and Centrifuge Hettich EBA 12 R (10,000 g).

`C[C@@H]1c2ccccc2CCN1C(=O)c1cc2ncc(Br)cn2n1.O=C(O)c1cc(O)ccc1O` [Example 3c, co-crystal of (6-bromo-pyrazolo[1,5-a]pyrimidin-2-yl)-(1(R)-methyl-3,4-dihydro-1H-isoquinolin-2-yl)-methanone and gentisic acid]: the hygroscopicity entry in series [1] was “not hygroscopic”. For the same molecule, the “post-DVS Raman spectrum, change in form” value in series [1] is “does not indicate any change in form”. For the same molecule, the “mass change Δm” value in series [1] was “about 0.1%”. Further, the Dissolution rate in series [2] (pH 2.0) was 2.04 µg/min; in series [2] (pH 3.9) it was 1.06 µg/min; in series [2] (pH 5.4), “—”; in series [2] (pH 7.3) it was “—”.

Consider `C[C@@H]1c2ccccc2CCN1C(=O)c1cc2ncc(Br)cn2n1.O=C(O)c1ccc2ccccc2c1O` [Example 4c, co-crystal of (6-bromo-pyrazolo[1,5-a]pyrimidin-2-yl)-(1(R)-methyl-3,4-dihydro-1H-isoquinolin-2-yl)-methanone and xinafoic acid], for which the hygroscopicity entry in series [1] was “slightly hygroscopic”. Also, in series [1], the “post-DVS Raman spectrum, change in form” value is given as “does not indicate any change in form”. Moreover, the “mass change Δm” value in series [1] was “about 1%”. In series [1] (humidity increased to 95% r.h., equilibrium reached), the total water content entry was “approximately 2 wt.-%”. For the same molecule, the Dissolution rate in series [2] (pH 2.0) was found to be 0.46 µg/min; in series [2] (pH 3.9) it was 0.68 µg/min; in series [2] (pH 5.4), 1.26 µg/min; in series [2] (pH 7.3), 1.44 µg/min.

For the molecule `C[C@@H]1c2ccccc2CCN1C(=O)c1cc2ncc(Br)cn2n1` [Free drug compound, (6-bromo-pyrazolo[1,5-a]pyrimidin-2-yl)-(1(R)-methyl-3,4-dihydro-1H-isoquinolin-2-yl)-methanone], the Dissolution rate is 0.58 µg/min in series [2] (pH 2.0), 0.22 µg/min in series [2] (pH 3.9), “—” in series [2] (pH 5.4) and “—” in series [2] (pH 7.3). The molecule further displayed a solubility at 24 h in series [3] (thermodynamic from solid, water, 24 hours, 23° C., at pH 8.5, near the detection limit) of under 10 µg/mL.

Consider `CC1c2ccccc2CCN1C(=O)c1cc2ncc(Br)cn2n1` (centres unmarked) [compound A], for which the “solubility in water or aqueous solvents” value in series [3] (water or aqueous solvents) is listed as “below 10 μg/mL”.

On to “co-crystal of (6-bromo-pyrazolo[1,5-a]pyrimidin-2-yl)-(1(R)-methyl-3,4-dihydro-1H-isoquinolin-2-yl)-methanone and succinic acid [Example 2a]”, for which the hygroscopicity entry in series [1] is given as “not hygroscopic”. The “post-DVS Raman spectrum, change in form” value in series [1] is “does not indicate any change in form”. The “mass change Δm” value in series [1] is given as “about 0.1%”. The “enhancement of the dissolution rate compared to the free drug” value in series [2] (at pH 2) worked out at 3 fold. The Dissolution rate in series [2] (pH 2.0) was 2.06 µg/min; in series [2] (pH 3.9), 1.58 µg/min; in series [2] (pH 5.4), “—”; in series [2] (pH 7.3), “—”.
